From patent publication US20050197350A1, “Novel quinoline, tetrahydroquinazoline, and pyrimidine derivatives and methods of treatment related to the use thereof” (TAISHO PHARMACEUTICAL CO., LTD., priority 2003, published 2005)

The molecules below were run on MCH receptors (assay: MCH receptor activity class (method not given)). Conditions: class by percent of control at 10^-7 M or IC50.
In the case of `Cc1onc(-c2c(Cl)cccc2Cl)c1C(=O)N[C@H]1CC[C@@H](Nc2nccc(N(C)C)n2)CC1` [compound 352, 3-(2,6-dichlorophenyl)-N-(cis-4-{[4-(dimethylamino)pyrimidin-2-yl]amino}cyclohexyl)-5-methylisoxazole-4-carboxamide], the class was 1 (Class 1: The value of percent of control at 10^−7 M was less than 40% or the value of IC50 was less than 50 nM.).
For `CN(C)c1ccnc(N[C@H]2CC[C@@H](NC(=O)c3cccnc3Oc3ccccc3)CC2)n1` [compound 353, N-(cis-4-{[4-(dimethylamino)pyrimidin-2-yl]amino}cyclohexyl)-2-phenoxynicotinamide], the class was 2 (Class 2: The value of percent of control at 10^−7 M was from 40% to 60% or the value of IC′50 was from 50 nM to 200 nM.).
In the case of `CN(C)c1ccnc(N[C@H]2CC[C@@H](NC(=O)c3cccnc3Sc3ccccc3)CC2)n1` [compound 354], the class was 3 (Class 3 The value of percent of control at 10^−7 M was more than 60% or the value of IC50 was more than 200 nM.).
For `Cc1ccc(Oc2ncccc2C(=O)N[C@H]2CC[C@@H](Nc3nccc(N(C)C)n3)CC2)cc1` [compound 355, N-(cis-4-{[4-(dimethylamino)pyrimidin-2-yl]amino}cyclohexyl)-2-(4-methylphenoxy)nicotinamide], the class was 1 (Class 1: The value of percent of control at 10^−7 M was less than 40% or the value of IC50 was less than 50 nM.).
With `CCCN(CCC)S(=O)(=O)c1ccc(C(=O)N[C@H]2CC[C@@H](Nc3nccc(N(C)C)n3)CC2)cc1` [compound 356, N-(cis-4-{[4-(dimethylamino)pyrimidin-2-yl]amino}cyclohexyl)-4-[(dipropylamino)sulfonyl]benzamide] the class was 1 (Class 1: The value of percent of control at 10^−7 M was less than 40% or the value of IC50 was less than 50 nM.).
For `CN(C)c1ccnc(N[C@H]2CC[C@@H](NC(=O)C(C)(C)Oc3ccc(Cl)cc3)CC2)n1` [compound 357, 2-(4-chlorophenoxy)-N-(cis-4-{[4-(dimethylamino)pyrimidin-2-yl]amino}cyclohexyl)-2-methylpropanamide], the class was 2 (Class 2: The value of percent of control at 10^−7 M was from 40% to 60% or the value of IC′50 was from 50 nM to 200 nM.).
For `CN(C)c1ccnc(N[C@H]2CC[C@@H](NC(=O)c3cc(-c4ccc(Cl)cc4)oc3C(F)(F)F)CC2)n1` [compound 358], the class was 3 (Class 3 The value of percent of control at 10^−7 M was more than 60% or the value of IC50 was more than 200 nM.).
In the case of `CN(C)c1ccnc(N[C@H]2CC[C@@H](NC(=O)c3csc(-c4ccc5c(c4)CCO5)n3)CC2)n1` [compound 359, 2-(2,3-dihydro-1-benzofuran-5-yl)-N-(cis-4-{[4-(dimethylamino)pyrimidin-2-yl]amino}cyclohexyl)-1,3-thiazole-4-carboxamide], the class was 1 (Class 1: The value of percent of control at 10^−7 M was less than 40% or the value of IC50 was less than 50 nM.).
With `CN(C)c1ccnc(N[C@H]2CC[C@@H](NC(=O)c3cc(C(C)(C)C)nn3Cc3ccc(Cl)cc3Cl)CC2)n1` [compound 360, 3-tert-butyl-1-(2,4-dichlorobenzyl)-N-(cis-4-{[4-(dimethylamino)pyrimidin-2-yl]amino}cyclohexyl)-1H-pyrazole-5-carboxamide] the class was 2 (Class 2: The value of percent of control at 10^−7 M was from 40% to 60% or the value of IC′50 was from 50 nM to 200 nM.).
With `CN(C)c1ccnc(N[C@H]2CC[C@@H](NC(=O)C3=Cc4cc(Cl)ccc4OC3)CC2)n1` [compound 361, 6-chloro-N-(cis-4-{[4-(dimethylamino)pyrimidin-2-yl]amino}cyclohexyl)-2H-chromene-3-carboxamide] the class was 2 (Class 2: The value of percent of control at 10^−7 M was from 40% to 60% or the value of IC′50 was from 50 nM to 200 nM.).
In the case of `CN(C)c1ccnc(N[C@H]2CC[C@@H](NC(=O)c3ccc(OC(F)(F)F)c(Cl)c3)CC2)n1` [compound 362], the class was 3 (Class 3 The value of percent of control at 10^−7 M was more than 60% or the value of IC50 was more than 200 nM.).
With `Cc1cc(=O)oc2c(OCC(=O)N[C@H]3CC[C@@H](Nc4nccc(N(C)C)n4)CC3)cccc12` [compound 363] the class was 3 (Class 3 The value of percent of control at 10^−7 M was more than 60% or the value of IC50 was more than 200 nM.).
With `CN(C)c1ccnc(N[C@H]2CC[C@@H](NC(=O)c3csc(-c4cccs4)n3)CC2)n1` [compound 364, N-(cis-4-{[4-(dimethylamino)pyrimidin-2-yl]amino}cyclohexyl)-2-(2-thienyl)-1,3-thiazole-4-carboxamide] the class was 1 (Class 1: The value of percent of control at 10^−7 M was less than 40% or the value of IC50 was less than 50 nM.).
For `COc1cccc(C(=O)NC[C@H]2CC[C@@H](Nc3nccc(N(C)C)n3)CC2)c1` [compound 365], the class was 3 (Class 3 The value of percent of control at 10^−7 M was more than 60% or the value of IC50 was more than 200 nM.).
In the case of `CN(C)c1ccnc(N[C@H]2CC[C@@H](CNC(=O)c3cccc(Br)c3)CC2)n1` [compound 366], the class was 3 (Class 3 The value of percent of control at 10^−7 M was more than 60% or the value of IC50 was more than 200 nM.).
`CN(C)c1ccnc(N[C@H]2CC[C@@H](CNC(=O)c3ccc(Br)cc3)CC2)n1` [compound 367] was tested, and the class was 3 (Class 3 The value of percent of control at 10^−7 M was more than 60% or the value of IC50 was more than 200 nM.).
For `CN(C)c1ccnc(N[C@H]2CC[C@@H](CNC(=O)c3ccc4nonc4c3)CC2)n1` [compound 368], the class was 3 (Class 3 The value of percent of control at 10^−7 M was more than 60% or the value of IC50 was more than 200 nM.).
In the case of `CN(C)c1ccnc(N[C@H]2CC[C@@H](CNC(=O)c3cccc(Cl)c3)CC2)n1` [compound 369], the class was 3 (Class 3 The value of percent of control at 10^−7 M was more than 60% or the value of IC50 was more than 200 nM.).
In the case of `CN(C)c1ccnc(N[C@H]2CC[C@@H](CNC(=O)c3ccc(Cl)cc3)CC2)n1` [compound 370], the class was 2 (Class 2: The value of percent of control at 10^−7 M was from 40% to 60% or the value of IC′50 was from 50 nM to 200 nM.).
For `CN(C)c1ccnc(N[C@H]2CC[C@@H](CNC(=O)/C=C/c3ccccc3)CC2)n1` [compound 371], the class was 2 (Class 2: The value of percent of control at 10^−7 M was from 40% to 60% or the value of IC′50 was from 50 nM to 200 nM.).
In the case of `CN(C)c1ccnc(N[C@H]2CC[C@@H](CNC(=O)c3ccc(Cl)c([N+](=O)[O-])c3)CC2)n1` [compound 372], the class was 2 (Class 2: The value of percent of control at 10^−7 M was from 40% to 60% or the value of IC′50 was from 50 nM to 200 nM.).
With `CN(C)c1ccnc(N[C@H]2CC[C@@H](CNC(=O)Cc3ccc(Cl)cc3)CC2)n1` [compound 373] the class was 2 (Class 2: The value of percent of control at 10^−7 M was from 40% to 60% or the value of IC′50 was from 50 nM to 200 nM.).
In the case of `CN(C)c1ccnc(N[C@H]2CC[C@@H](CNC(=O)c3cccc(C#N)c3)CC2)n1` [compound 374], the class was 3 (Class 3 The value of percent of control at 10^−7 M was more than 60% or the value of IC50 was more than 200 nM.).
In the case of `CN(C)c1ccnc(N[C@H]2CC[C@@H](CNC(=O)c3cc(Cl)cc(Cl)c3)CC2)n1` [compound 375], the class was 2 (Class 2: The value of percent of control at 10^−7 M was from 40% to 60% or the value of IC′50 was from 50 nM to 200 nM.).
With `CN(C)c1ccnc(N[C@H]2CC[C@@H](CNC(=O)c3ccc(Cl)c(Cl)c3)CC2)n1` [compound 376] the class was 2 (Class 2: The value of percent of control at 10^−7 M was from 40% to 60% or the value of IC′50 was from 50 nM to 200 nM.).
In the case of `CN(C)c1ccnc(N[C@H]2CC[C@@H](CNC(=O)C(c3ccccc3)c3ccccc3)CC2)n1` [compound 377, N-[(cis-4-{[4-(dimethylamino)pyrimidin-2-yl]amino}cyclohexyl)methyl]-2,2-diphenylacetamide], the class was 1 (Class 1: The value of percent of control at 10^−7 M was less than 40% or the value of IC50 was less than 50 nM.).
In the case of `CN(C)c1ccnc(N[C@H]2CC[C@@H](CNC(=O)c3ccc(F)c(F)c3)CC2)n1` [compound 378], the class was 3 (Class 3 The value of percent of control at 10^−7 M was more than 60% or the value of IC50 was more than 200 nM.).
In the case of `CN(C)c1ccnc(N[C@H]2CC[C@@H](CNC(=O)c3cc(F)cc(F)c3)CC2)n1` [compound 379], the class was 3 (Class 3 The value of percent of control at 10^−7 M was more than 60% or the value of IC50 was more than 200 nM.).
`COc1ccc(OC)c(CC(=O)NC[C@H]2CC[C@@H](Nc3nccc(N(C)C)n3)CC2)c1` [compound 380] was tested, and the class was 3 (Class 3 The value of percent of control at 10^−7 M was more than 60% or the value of IC50 was more than 200 nM.).
With `CCSc1ncccc1C(=O)NC[C@H]1CC[C@@H](Nc2nccc(N(C)C)n2)CC1` [compound 381] the class was 3 (Class 3 The value of percent of control at 10^−7 M was more than 60% or the value of IC50 was more than 200 nM.).
`CN(C)c1ccnc(N[C@H]2CC[C@@H](CNC(=O)c3ccc(F)cc3)CC2)n1` [compound 382] was tested, and the class was 3 (Class 3 The value of percent of control at 10^−7 M was more than 60% or the value of IC50 was more than 200 nM.).
`CN(C)c1ccnc(N[C@H]2CC[C@@H](CNC(=O)c3cc(F)cc(C(F)(F)F)c3)CC2)n1` [compound 383] was tested, and the class was 3 (Class 3 The value of percent of control at 10^−7 M was more than 60% or the value of IC50 was more than 200 nM.).
For `CN(C)c1ccnc(N[C@H]2CC[C@@H](CNC(=O)c3cc(F)c(Cl)cc3Cl)CC2)n1` [compound 384], the class was 2 (Class 2: The value of percent of control at 10^−7 M was from 40% to 60% or the value of IC′50 was from 50 nM to 200 nM.).
With `CCCCCC(=O)NC[C@H]1CC[C@@H](Nc2nccc(N(C)C)n2)CC1` [compound 385] the class was 3 (Class 3 The value of percent of control at 10^−7 M was more than 60% or the value of IC50 was more than 200 nM.).
In the case of `CN(C)c1ccnc(N[C@H]2CC[C@@H](CNC(=O)c3ccc(I)cc3)CC2)n1` [compound 386], the class was 3 (Class 3 The value of percent of control at 10^−7 M was more than 60% or the value of IC50 was more than 200 nM.).
In the case of `CSc1ncccc1C(=O)NC[C@H]1CC[C@@H](Nc2nccc(N(C)C)n2)CC1` [compound 387], the class was 3 (Class 3 The value of percent of control at 10^−7 M was more than 60% or the value of IC50 was more than 200 nM.).
In the case of `Cc1ccc(C(=O)NC[C@H]2CC[C@@H](Nc3nccc(N(C)C)n3)CC2)cc1[N+](=O)[O-]` [compound 388], the class was 3 (Class 3 The value of percent of control at 10^−7 M was more than 60% or the value of IC50 was more than 200 nM.).
